Measurements taken from patent US20100251436A1, “METHOD FOR GROWING SUGARCANE” (SYNGENTA CROP PROTECTION, INC., priority 2007, published 2010).

Test system: sugar cane Variety RB 86-7515
Test: Greenhouse pot test of formulated agrochemicals on vigour (tillers, plant height, leaf width, culm diameter)
Conditions: for number of tillers in comparison with the control / plant height in comparison with the control: greenhouse, rate of the respective example
From the text: 1) carretel with one bud treated with abamectin 2) carretel with one bud treated with abamectin+15% v/v of polymer 3) stalk with 3 buds untreated 4) carretel with one bud untreated 5) carretel with one bud untreated+15% v/v of polymer 6) stalk with 3 buds treated with abamectin.
Twenty 1 L pots were filled with 16 L of clay soil, 1.6 L of sand and 8 g of nitrogen, 28 g of phosphorus (P2O5) and 16 g of potassium (K2O). Six carretels of 4 cm length with only one bud were planted in each pot (treatments 1, 2, 4 and 5). Two stalks with three buds were planted in each control pot (treatments 3 and 6) to simulate conventional planting. A layer of 3 cm of soil was used to cover the carretels. […] The stalks were treated simulating a furrow application at 100 L.ha^−1 of slurry. Experimental design adopted was randomized complete block with four replications. The pots were maintained with adequate moisture during the test. Evaluations of: plant height, leaf width, culm diameter and number of tillers were done at 20, 30 and 42 days after planting.

Compound | number of tillers in comparison with the control (result in words) | plant height in comparison with the control (result in words) | increase in "quality" (result in words, not apparent from the measured parameters) | Tillers (abamectin 100 g ai/ha, carretel with one bud, dipped in slurry 3 min, 42 days after planting) [number]
CN1COCN(Cc2cnc(Cl)s2)/C1=N\[N+](=O)[O-] [Thiamethoxam, thiamethoxam] | increased | reduced | greater than the other treatments | –
O=[N+]([O-])NC1=NCCN1Cc1ccc(Cl)nc1 [Imidacloprid] | increase | – | – | –
N#Cc1nn(-c2c(Cl)cc(C(F)(F)F)cc2Cl)c(N)c1[S+]([O-])C(F)(F)F (centres unmarked) [Fipronil, fipronil] | increased | decreased | – | –
CN/C(=N\[N+](=O)[O-])NCc1cnc(Cl)s1 [Clothianidin, clothianidin] | increased | slight reduction | – | –
abamectin | increase | decrease | – | 14
